We go through 19 compounds from patent US20220396565A1 (Hoffmann-La Roche Inc., priority 2020, published 2022).

Structures can show the parent of a compound that is named as a salt.

One assay concerns Acinetobacter baumannii ATCC17961. Put plainly: Antimicrobial susceptibility testing: 90% growth inhibitory concentration (IC90) determination, Iso-Sensitest broth. The assay is classed as cell-based. To be noted: Acinetobacter baumannii, ATCC17961, 90% growth inhibitory concentration, Acinetobacter baumannii ATCC17961, Iso-Sensitest broth; read-out: ATCC 17961 IC90. The procedure:
The in vitro antimicrobial activity of the compounds was determined according to the following procedure:
The assay used a 10-points Iso-Sensitest broth medium to measure quantitatively the in vitro activity of the compounds against Acinetobacter baumannii ATCC17978 or ATCC17961.
Stock compounds in DMSO were serially twofold diluted (e.g. range from 10 to 0.02 μM final concentration) in 384 wells microtiter plates and inoculated with 49 μl the bacterial suspension in Iso-Sensitest medium to have a final cell concentration of ˜5×10^(5) CFU/ml in a final volume/well of 50 ul/well. Microtiter plates were incubated at 35±2° C.
Bacterial cell growth was determined with the measurement of optical density at k=600 nm each 20 minutes over a time course of 16 h. Growth inhibition was calculated during the logarithmic growth of the bacterial cells with determination of the concentration inhibiting 50% (IC50) and 90% (IC90) of the growth.
Table 1 provides the 90% growth inhibitory concentrations (IC90) in micromoles per liter of the compounds of present invention obtained against the strain Acinetobacter baumannii ATCC17978 or ATCC17961.
As to `COc1ccc(-c2cnc(C(=O)Nc3ccc(C(=O)N4CCC(N)CC4)c(Cl)c3)n2C)c(F)c1F` [Example 13, N-[4-(4-Aminopiperidine-1-carbonyl)-3-chloro-phenyl]-5-(2,3-difluoro-4-methoxy-phenyl)-1-methyl-imidazole-2-carboxamide formate], the IC90 turned out to be 110 nM. Regarding `Cn1c(-c2ccc(OCC#N)c(F)c2F)cnc1C(=O)Nc1ccc(C(=O)N2CCNCC2)c(Cl)c1` [Example 14, N-[3-chloro-4-(piperazine-1-carbonyl)phenyl]-5-[4-(cyanomethoxy)-2,3-difluoro-phenyl]-1-methyl-imidazole-2-carboxamide], the 90% effect concentration (IC90) stood at 130 nM. On to `COc1ccc(-c2cnc(C(=O)Nc3ccc(C(=O)N4CC(OCCN)C4)c(Cl)c3)n2C)c(F)c1F` [Example 18, N-[4-[3-(2-aminoethoxy)azetidine-1-carbonyl]-3-chloro-phenyl]-5-(2,3-difluoro-4-methoxy-phenyl)-1-methyl-imidazole-2-carboxamide formate], for which the 90% effect concentration (IC90) is 70 nM.

`Cn1c(-c2ccc(OCC#N)c(F)c2F)cnc1C(=O)Nc1ccc(C(=O)N2CCN(CCN)CC2)c(Cl)c1` [Example 19, N-[4-[4-(2-aminoethyl)piperazine-1-carbonyl]-3-chloro-phenyl]-5-[4-(cyanomethoxy)-2,3-difluoro-phenyl]-1-methyl-imidazole-2-carboxamide trifluoroacetate]: the IC90 was found to be 60 nM. On the same count and under the same terms, the figure for `COc1ccc(-c2cnc(C(=O)Nc3ccc(C(=O)N4CCC(S(=O)(=O)N5CCNCC5)CC4)c(Cl)c3)n2C)c(F)c1F` [Example 21, N-(3-chloro-4-(4-(piperazin-1-ylsulfonyl)piperidine-1-carbonyl)phenyl)-5-(2,3-difluoro-4-methoxyphenyl)-1-methyl-1H-imidazole-2-carboxamide formate] is 100 nM. Consider `COc1ccc(-c2cnc(C(=O)Nc3ccc(C(=O)N4CCC(OCCN)CC4)c(Cl)c3)n2C)c(F)c1F` [Example 22, N-[4-[4-(2-aminoethoxy)piperidine-1-carbonyl]-3-chloro-phenyl]-5-(2,3-difluoro-4-methoxy-phenyl)-1-methyl-imidazole-2-carboxamide formate], for which the IC90 was 40 nM.

For `COc1ccc(-c2cnc(C(=O)Nc3ccc(C(=O)N4CCC(OCC5CNC5)CC4)c(Cl)c3)n2C)c(F)c1F` [Example 23, N-[4-[4-(azetidin-3-ylmethoxy)piperidine-1-carbonyl]-3-chloro-phenyl]-5-(2,3-difluoro-4-methoxy-phenyl)-1-methyl-imidazole-2-carboxamide formate], the IC90 came out at 60 nM. `Cn1c(-c2ccc(OCF)c(F)c2F)cnc1C(=O)Nc1ccc(C(=O)N2CCN(C(=O)C3CCN(CC(N)=O)CC3)CC2)c(Cl)c1` [Example 24, N-(4-(4-(1-(2-amino-2-oxoethyl)piperidine-4-carbonyl)piperazine-1-carbonyl)-3-chlorophenyl)-5-(2,3-difluoro-4-(fluoromethoxy)phenyl)-1-methyl-1H-imidazole-2-carboxamide]: the IC90 is 70 nM. As to `Cn1c(-c2ccc(OCF)cc2F)cnc1C(=O)Nc1ccc(C(=O)N2CCN(C(=O)N3CC[C@@H](N)C3)CC2)c(Cl)c1` [Example 26, (R)-N-(4-(4-(3-aminopyrrolidine-1-carbonyl)piperazine-1-carbonyl)-3-chlorophenyl)-5-(2-fluoro-4-(fluoromethoxy)phenyl)-1-methyl-1H-imidazole-2-carboxamide formate], the IC90 was found to be 30 nM. For `COc1ccc(-c2cnc(C(=O)Nc3ccc(C(=O)N4CCC(C(=O)N5CCN[C@H](CO)C5)CC4)c(Cl)c3)n2C)c(F)c1F` [Example 29, N-[3-chloro-4-[4-[(3S)-3-(hydroxymethyl)piperazine-1-carbonyl]piperidine-1-carbonyl]phenyl]-5-(2,3-difluoro-4-methoxy-phenyl)-1-methyl-imidazole-2-carboxamide], the IC90 was 190 nM. For the compound `COc1ccc(-c2cnc(C(=O)Nc3ccc(C(=O)N4CCC(C(=O)N5CCN[C@@H](CO)C5)CC4)c(Cl)c3)n2C)c(F)c1F` [Example 30, N-[3-chloro-4-[4-[(3R)-3-(hydroxymethyl)piperazine-1-carbonyl]piperidine-1-carbonyl]phenyl]-5-(2,3-difluoro-4-methoxy-phenyl)-1-methyl-imidazole-2-carboxamide], the 90% effect concentration (IC90) turned out to be 170 nM. For the compound `COc1ccc(-c2cnc(C(=O)Nc3ccc(C(=O)N4CCC(C(=O)NCC5CNC5)CC4)c(Cl)c3)n2C)c(F)c1F` [Example 31, N-(azetidin-3-ylmethyl)-1-[2-chloro-4-[[5-(2,3-difluoro-4-methoxy-phenyl)-1-methyl-imidazole-2-carbonyl]amino]benzoyl] piperidine-4-carboxamide formate], the 90% effect concentration (IC90) was 70 nM. Turning to `COc1ccc(-c2cnc(C(=O)Nc3ccc(C(=O)N4CCC(C(=O)NC[C@H](C)N)CC4)c(Cl)c3)n2C)c(F)c1F` [Example 32, N-[(2S)-2-aminopropyl]-1-[2-chloro-4-[[5-(2,3-difluoro-4-methoxy-phenyl)-1-methyl-imidazole-2-carbonyl]amino]benzoyl] piperidine-4-carboxamide], the IC90 was 80 nM. Consider `COc1ccc(-c2cnc(C(=O)Nc3ccc(C(=O)N4CCC(C(=O)N5CC(N)C5)CC4)c(Cl)c3)n2C)c(F)c1F` [Example 33, N-[4-[4-(3-aminoazetidine-1-carbonyl)piperidine-1-carbonyl]-3-chloro-phenyl]-5-(2,3-difluoro-4-methoxy-phenyl)-1-methyl-imidazole-2-carboxamide trifluoroacetate], for which the IC90 was 90 nM.

The assay is the same for the next values; noted with them: Acinetobacter baumannii, ATCC17961, read-out: ATCC 17961 IC90.
For `Cn1c(-c2ccc(OCC#N)c(F)c2F)cnc1C(=O)Nc1ccc(C(=O)N2CCN(C(=O)N[C@@H]3CNC[C@H]3O)CC2)c(Cl)c1` [Example 7], the IC90 was determined as 70 nM.

With `COc1ccc(-c2cnc(C(=O)Nc3ccc(C(=O)N4CCC(NC(=O)CC5CCNC5)CC4)c(Cl)c3)n2C)c(F)c1F` (stereo not shown) [Example 11, N-[3-Chloro-4-[4-[(2-pyrrolidin-3-ylacetyl)amino]piperidine-1-carbonyl]phenyl]-5-(2,3-difluoro-4-methoxy-phenyl)-1-methyl-imidazole-2-carboxamide formate], the IC90 amounted to 70 nM. As for `COc1ccc(-c2cnc(C(=O)Nc3ccc(C(=O)N4CCC(CCN)CC4)c(Cl)c3)n2C)c(F)c1F` [Example 17, N-[4-[4-(2-Aminoethyl)piperidine-1-carbonyl]-3-chloro-phenyl]-5-(2,3-difluoro-4-methoxy-phenyl)-1-methyl-imidazole-2-carboxamide formate], the IC90 amounted to 30 nM. `Cn1c(-c2ccc(OCF)cc2F)cnc1C(=O)Nc1ccc(C(=O)N2CCN(C(=O)C3CCNCC3)CC2)c(Cl)c1` [Example 25, N-(3-chloro-4-(4-(piperidine-4-carbonyl)piperazine-l-carbonyl)phenyl)-5-(2-fluoro-4-(fluoromethoxy)phenyl)-1-methyl-1H-imidazole-2-carboxamide formate]: the concentration for an effect of 90% (IC90) turned out to be 60 nM. As to `COc1ccc(-c2cnc(C(=O)Nc3ccc(C(=O)N4CCC(C(=O)N[C@@H](C)CN)CC4)c(Cl)c3)n2C)c(F)c1F` [Example 28, N-[(1S)-2-Amino-1-methyl-ethyl]-1-[2-chloro-4-[[5-(2,3-difluoro-4-methoxy-phenyl)-1-methyl-imidazole-2-carbonyl]amino]benzoyl]piperidine-4-carboxamide trifluoroacetate], the IC90 turned out to be 170 nM.

One may read the IC90 as the concentration needed for an effect of 90%.
